This is an account of results in US20230287003A1, “BCL6 INHIBITORS” (Cancer Research Technology Limited, priority 2018, published 2023).

For experiment [1], the target named is BCL6-NCOR2(SMRT) corepressor protein-protein interaction (Homo sapiens (Human), UniProt P41182). Nature of the experiment: NanoBRET cell assay. It is filed as cell-based. The note with it: for IC50: read-out: NanoBRET cell avg pIC50 (converted). The text has this:
At 20 hr post-transfection, cells were collected, washed with PBS, and exchanged into media containing phenol red-free OptiMEM+4% FBS (Life Technology).
For orientation: BRET reads energy transfer from a luciferase to a nearby fluorophore.

In experiment [2] the target is human BCL6 BTB domain (Trx-6×His-BCL6) / BCOR-AF633 peptide (Homo sapiens (Human), UniProt P41182). Nature of the experiment: HTRF assay. It is filed as binding. The note with it: 1 nM Trx-6×His-BCL6, 300 nM BCOR-AF633 peptide, 2 hours incubation.
Procedure: The % inhibition at each concentration was calculated by normalising FRET ratio to the appropriate high (DMSO with all reagents) and low (DMSO without BCL6) controls.

For `Cn1c(=O)c2c(c3cc(Nc4nc(N5C6CC7CC5CC(C6)O7)ncc4Cl)ccc31)N[C@@H](C1CC1)CCO2` [Example 5o, (R)-10-((2-(2-oxa-6-azaadamantan-6-yl)-5-chloropyrimidin-4-yl)amino)-2-cyclopropyl-7-methyl-1,2,3,4-tetrahydro-[1,4]oxazepino[2,3-c]quinolin-6(7H)-one], the IC50 in experiment [1] was 89.1 nM. For the same molecule, the “HTRF avg pIC50 (1 nM)” value in experiment [2] turned out to be 7.64.

`C[C@H]1CCOc2c(c3cc(Nc4ccnc(Cl)c4Cl)ccc3n(C)c2=O)N1` [Example 4a, (S)-10-((2,3-dichloropyridin-4-yl)amino)-2,7-dimethyl-1,2,3,4-tetrahydro-[1,4]oxazepino[2,3-c]quinolin-6(7H)-one]: the IC50 in experiment [1] was 4900 nM. Besides, the “HTRF avg pIC50 (1 nM)” value in experiment [2] is 6.21.

Consider `Cn1c(=O)c2c(c3cc(Nc4nc(N5C6CCC5CC(O)C6)ncc4Cl)ccc31)N[C@@H](C1CC1)CCO2` (stereo partly drawn) [Example 12f, (R)-10-((5-chloro-2-((1R,3R,5S)-3-hydroxy-8-azabicyclo[3.2.1]octan-8-yl)pyrimidin-4-yl)amino)-2-cyclopropyl-7-methyl-1,2,3,4-tetrahydro-[1,4]oxazepino[2,3-c]quinolin-6(7H)-one], for which the IC50 in experiment [1] is 295 nM. Further, the “HTRF avg pIC50 (1 nM)” value in experiment [2] is 7.96.

Turning to `Cn1c(=O)c2c(c3cc(Nc4ccnc(Cl)c4C#N)ccc31)N[C@@H](C1CC1)C(F)(F)CO2` [Example 1v, (S)-2-chloro-4-((2-cyclopropyl-3,3-difluoro-7-methyl-6-oxo-1,2,3,4,6,7-hexahydro-[1,4]oxazepino[2,3-c]quinolin-10-yl)amino)nicotinonitrile], in experiment [1] (HEK293T cells co-transfected with BCL6-nanoLuc and NCOR2-HaloTag, 6 hr incubation), the “NanoBRET cell avg pIC50” value is listed as 7.83. Besides, the “HTRF avg pIC50 (1 nM)” value in experiment [2] is listed as 8.58.

With `Cn1c(=O)c2c(c3cc(Nc4cc(C(=O)N5CC(C(F)(F)F)C5)nc(Cl)c4C#N)ccc31)N[C@@H](C1CC1)CCO2` [Example 3b, (R)-2-chloro-4-((2-cyclopropyl-7-methyl-6-oxo-1,2,3,4,6,7-hexahydro-[1,4]oxazepino[2,3-c]quinolin-10-yl)amino)-6-(3-(trifluoromethyl)azetidine-1-carbonyl)nicotinonitrile], the IC50 in experiment [1] is 646 nM. For the same molecule, in experiment [2], the “HTRF avg pIC50 (1 nM)” value is recorded as 7.32.

With `Cn1c(=O)c2c(c3cc(Nc4ccnc(Cl)c4C#N)ccc31)N[C@@H](C1CC1)COC2` [Example 9b, (S)-2-chloro-4-((2-cyclopropyl-7-methyl-6-oxo-1,2,3,5,6,7-hexahydro-[1,4]oxazepino[6,5-c]quinolin-10-yl)amino)nicotinonitrile], the IC50 in experiment [1] was 2000 nM. In addition, in experiment [2], the “HTRF avg pIC50 (1 nM)” value stood at 6.57.

Regarding `CN1CCN(c2ncc(Cl)c(Nc3ccc4c(c3)c3c(c(=O)n4C)OCC(F)(F)[C@H](C4CC4)N3)n2)CC1=O` [Example 12a, (S)-10-((5-chloro-2-(4-methyl-3-oxopiperazin-1-yl)pyrimidin-4-yl)amino)-2-cyclopropyl-3,3-difluoro-7-methyl-1,2,3,4-tetrahydro-[1,4]oxazepino[2,3-c]quinolin-6(7H)-one], in experiment [1], the IC50 was 18.6 nM. Further, the “HTRF avg pIC50 (1 nM)” value in experiment [2] came out at 8.82.

As to `C[C@H]1COC(=O)c2c(c3cc(Nc4nc(N5C6CCCC5CC6)ncc4Cl)ccc3n(C)c2=O)N1` [Example 8b, (2S)-10-((2-(8-azabicyclo[3.2.1]octan-8-yl)-5-chloropyrimidin-4-yl)amino)-2,7-dimethyl-2,3-dihydro-[1,4]oxazepino[6,5-c]quinoline-5,6(1H,7H)-dione], in experiment [1], the IC50 is 2190 nM. For the same molecule, the “HTRF avg pIC50 (1 nM)” value in experiment [2] came out at 6.85.

Turning to `C[C@@H]1CN(c2ncc(Cl)c(Nc3ccc4c(c3)c3c(c(=O)n4C)C(=O)OC[C@H](C)N3)n2)C[C@H](C)O1` [Example 8a, (S)-10-((5-chloro-2-((2S,6R)-2,6-dimethylmorpholino)pyrimidin-4-yl)amino)-2,7-dimethyl-2,3-dihydro-[1,4]oxazepino[6,5-c]quinoline-5,6(1H,7H)-dione], the IC50 in experiment [1] was 9550 nM. Besides, the “HTRF avg pIC50 (1 nM)” value in experiment [2] turned out to be 6.97.
